The conditions of the data set: 14-membered ring.

Where two headings read alike, the source gives them in different places.

Under “from tert-butyl N-[2-[5-[(1R)-1-benzyloxy-4-[(25)-2-hydroxypropoxy]-1-(trifluoromethyl)butyl]-1,3,4-oxadiazol-2-yl]-6-hydroxy-5-(trifluoromethyl)-3-pyridyl]-N-tert-butoxycarbonyl-carbamate, ether bond, PPh3/DIAD, THF, 15.0 mM”, `C[C@@H]1COCCC[C@](OCc2ccccc2)(C(F)(F)F)C2=NN=C(O2)c2nc(c(C(F)(F)F)cc2N(C(=O)OC(C)(C)C)C(=O)OC(C)(C)C)O1` came in with a ring closure, isolated yield of 50%.
`CC1(C)CC=CC[C@](OCc2ccccc2)(C(F)(F)F)C2=NN=C(O2)c2nc(c(C(F)(F)F)cc2N(C(=O)OC(C)(C)C)C(=O)OC(C)(C)C)OC1` (mixture of isomers): where the note is “from C=CCC(C)(C)COc1nc(-c2nnc([C@@](CC=C)(OCc3ccccc3)C(F)(F)F)o2)c(N(C(=O)OC(C)(C)C)C(=O)OC(C)(C)C)cc1C(F)(F)F, rcm bond, Zhan-1B, toluene, 2.2 mM, 110.0 °C, 4.0 h”, the ring closure, isolated yield stood at 10%.
`C[C@H]1Oc2nc(c(NC(=O)OC(C)(C)C)cc2C(F)(F)F)C2=NN=C(O2)[C@@](OCc2ccccc2)(C(F)(F)F)CC=CCC1OCc1ccccc1` (mixture of isomers) gave a ring closure, isolated yield (from C=CCC(OCc1ccccc1)[C@@H](C)Oc1nc(-c2nnc([C@@](CC=C)(OCc3ccccc3)C(F)(F)F)o2)c(NC(=O)OC(C)(C)C)cc1C(F)(F)F, rcm bond, Zhan-1B, DCE, 6.94 mM, 70.0 °C, 48.0 h) of 56%.
For the setting “from C=CCC[C@@](OCc1ccccc1)(c1nnc(-c2nc(O[C@@H](C)CC=C)c(C(F)(F)F)cc2NC(=O)OC(C)(C)C)o1)C(F)(F)F, rcm bond, Hoveyda-Grubbs II, toluene, 5.08 mM, 100.0 °C, 1.0 h”, `C[C@H]1CC=CCC[C@](OCc2ccccc2)(C(F)(F)F)C2=NN=C(O2)c2nc(c(C(F)(F)F)cc2NC(=O)OC(C)(C)C)O1` (mixture of isomers) had a ring closure, isolated yield of 22%.
Turning to `C[C@@H]1CCC=CC(F)(F)C(OCc2ccccc2)C2=NN=C(O2)c2nc(c(C(F)(F)F)cc2[N+](=O)[O-])O1` (mixture of isomers), under “from C=CCC[C@@H](C)Oc1nc(-c2nnc(C(OCc3ccccc3)C(F)(F)C=C)o2)c([N+](=O)[O-])cc1C(F)(F)F, rcm bond, Grubbs II, DCE, 1.8 mM, 75.0 °C, 0.92 h”, the ring closure, isolated yield was 30%.
In turn, `C[C@@H]1CC=CCc2cn(Cc3ccccc3)nc2C2=NN=C(O2)c2nc(c(C(F)(F)F)cc2NC(=O)OC(C)(C)C)O1` (mixture of isomers) came in with a ring closure, isolated yield (from C=CCc1cn(Cc2ccccc2)nc1-c1nnc(-c2nc(O[C@H](C)CC=C)c(C(F)(F)F)cc2NC(=O)OC(C)(C)C)o1, rcm bond, Zhan-1B, DCE, 2.9 mM, 70.0 °C, 2.0 h) of 37%.
Compound `CCC1CCC=CC[C@](OCc2ccccc2)(C(F)(F)F)C2=NN=C(O2)c2nc(c(C(F)(F)F)cc2N(C(=O)OC(C)(C)C)C(=O)OC(C)(C)C)O1` (mixture of isomers) came in with a ring closure, isolated yield (from C=CCCC(CC)Oc1nc(-c2nnc([C@@](CC=C)(OCc3ccccc3)C(F)(F)F)o2)c(N(C(=O)OC(C)(C)C)C(=O)OC(C)(C)C)cc1C(F)(F)F, rcm bond, Zhan-1B, DCE, 5.4 mM, 70.0 °C) of 91%.

Values taken from patent publication US12269831B2, “Modulators of cystic fibrosis transmembrane conductance regulator” (Vertex Pharmaceuticals Incorporated, priority 2020, dated 2025).
